Structures can show the parent of a compound that is named as a salt. Where two headings read alike, the source gives them in different places.

Common to all, as to assay: AK assay 384-well format, Prestwick library screening
The subject of assay [1] is E. faecium. The format is cell-based, Enterococcus faecium. The conditions noted are these: 50 μM final drug concentration; for fold induction at 50 µM: Enterococcus faecium, 3 h.
In assay [2] the test system is S. aureus strain USA300-0114. Type of assay: cell-based, Staphylococcus aureus. The conditions noted are these: 50 μM final drug concentration; for fold induction at 50 µM: Staphylococcus aureus, USA300, 3 h.
The test system of assay [3] is K. pneumoniae. Type of assay: cell-based, Klebsiella pneumoniae. The settings on record: 50 μM final drug concentration; for fold induction at 50 µM: Klebsiella pneumoniae, 3 h.
Assay [4] concerns A. baumannii strain 98-37-09. Type of assay: cell-based, Acinetobacter baumannii. The settings on record: 50 μM final drug concentration; for fold induction at 50 µM: Acinetobacter baumannii, 983709, 3 h.
Assay [5] deals with P. aeruginosa. The format is cell-based, Pseudomonas aeruginosa. The settings on record: 50 μM final drug concentration; for fold induction at 50 µM: Pseudomonas aeruginosa, 3 h.
Assay [6] relates to E. cloacae. Type of assay: cell-based, Enterobacter cloacae. The settings on record: 50 μM final drug concentration; for fold induction at 50 µM: Enterobacter cloacae, 3 h.
Assay [7] relates to E. coli. The format is cell-based, Escherichia coli. The settings on record: 50 μM final drug concentration; for fold induction at 50 µM: Escherichia coli, 3 h.
[8] abbreviates: planktonic E. faecium, cutoff for positive-scoring molecules 3-fold increase, read-out: AK-based Prestwick Library Screening Results, E. faecium (increase in extracellular AK activity).
Where [9] appears, read: planktonic S. aureus, cutoff for positive-scoring molecules 3-fold increase, read-out: AK-based Prestwick Library Screening Results, S. aureus (increase in extracellular AK activity).
Setting [10] is: planktonic K. pneumoniae, cutoff for positive-scoring molecules 3-fold increase, read-out: AK-based Prestwick Library Screening Results, K. pneumoniae (increase in extracellular AK activity).
Setting [11] is: planktonic A. baumannii, cutoff for positive-scoring molecules 3-fold increase, read-out: AK-based Prestwick Library Screening Results, A. baumannii (increase in extracellular AK activity).
The mark [12] stands for this setting: planktonic P. aeruginosa, cutoff for positive-scoring molecules 3-fold increase, read-out: AK-based Prestwick Library Screening Results, P. aeruginosa (increase in extracellular AK activity).
The mark [13] stands for this setting: planktonic E. cloacae, cutoff for positive-scoring molecules 3-fold increase, read-out: AK-based Prestwick Library Screening Results, E. cloacae (increase in extracellular AK activity).
The mark [14] stands for this setting: planktonic E. coli, cutoff for positive-scoring molecules 3-fold increase, read-out: AK-based Prestwick Library Screening Results, E. coli (increase in extracellular AK activity).
Setting [15] is: 384-well format, cutoff for positive-scoring molecules 3-fold increase, read-out: AK-based Prestwick Library Screening Results, E. faecium (increase in extracellular AK activity).
The mark [16] stands for this setting: 384-well format, cutoff for positive-scoring molecules 3-fold increase, read-out: AK-based Prestwick Library Screening Results, S. aureus (increase in extracellular AK activity).
[17] abbreviates: 384-well format, cutoff for positive-scoring molecules 3-fold increase, read-out: AK-based Prestwick Library Screening Results, K. pneumoniae (increase in extracellular AK activity).
[18] abbreviates: 384-well format, cutoff for positive-scoring molecules 3-fold increase, read-out: AK-based Prestwick Library Screening Results, A. baumannii (increase in extracellular AK activity).
Setting [19] is: 384-well format, cutoff for positive-scoring molecules 3-fold increase, read-out: AK-based Prestwick Library Screening Results, P. aeruginosa (increase in extracellular AK activity).
The mark [20] stands for this setting: 384-well format, cutoff for positive-scoring molecules 3-fold increase, read-out: AK-based Prestwick Library Screening Results, E. cloacae (increase in extracellular AK activity).
The mark [21] stands for this setting: 384-well format, cutoff for positive-scoring molecules 3-fold increase, read-out: AK-based Prestwick Library Screening Results, E. coli (increase in extracellular AK activity).
[22] abbreviates: planktonic E. faecium, 384-well, cutoff for positive-scoring molecules 3-fold increase, read-out: AK-based Prestwick Library Screening Results: E. faecium (increase in extracellular AK activity).
Setting [23] is: planktonic S. aureus, 384-well, cutoff for positive-scoring molecules 3-fold increase, read-out: AK-based Prestwick Library Screening Results: S. aureus (increase in extracellular AK activity).
Setting [24] is: planktonic K. pneumoniae, 384-well, cutoff for positive-scoring molecules 3-fold increase, read-out: AK-based Prestwick Library Screening Results: K. pneumoniae (increase in extracellular AK activity).
[25] abbreviates: planktonic A. baumannii, 384-well, cutoff for positive-scoring molecules 3-fold increase, read-out: AK-based Prestwick Library Screening Results: A. baumannii (increase in extracellular AK activity).
Setting [26] is: planktonic P. aeruginosa, 384-well, cutoff for positive-scoring molecules 3-fold increase, read-out: AK-based Prestwick Library Screening Results: P. aeruginosa (increase in extracellular AK activity).
Setting [27] is: planktonic E. cloacae, 384-well, cutoff for positive-scoring molecules 3-fold increase, read-out: AK-based Prestwick Library Screening Results: E. cloacae (increase in extracellular AK activity).
Setting [28] is: planktonic E. coli, 384-well, cutoff for positive-scoring molecules 3-fold increase, read-out: AK-based Prestwick Library Screening Results: E. coli (increase in extracellular AK activity).
Where [29] appears, read: planktonic, cutoff for positive 3-fold increase.

As to `NS(=O)(=O)c1cc(C(=O)O)c(NCc2ccco2)cc1Cl` [Furosemide], the fold induction at 50 µM in assay [1] (setting [8]) came out at 0.9; in assay [2] (setting [9]), 0.7; in assay [3] (setting [10]), 0.7; in assay [4] (setting [11]) it was 0.8; in assay [5] (setting [12]) it was 0.9; in assay [6] (setting [13]) it was 0.8. Besides, the fold induction at 50 µM in assay [7] (setting [14]) came out at 1.
For the molecule Lycorine hydrochloride, the “AK-based Prestwick Library Screening Results, E. faecium (fold increase in extracellular AK activity)” value in assay [1] (planktonic, […]) stood at 1.0. Also, the “AK-based Prestwick Library Screening Results, S. aureus (fold increase in extracellular AK activity)” value in assay [2] (planktonic, […]) came out at 1.4. Further, the “AK-based Prestwick Library Screening Results, K. pneumoniae (fold increase in extracellular AK activity)” value in assay [3] (planktonic, […]) worked out at 0.8. For the same molecule, the “AK-based Prestwick Library Screening Results, A. baumannii (fold increase in extracellular AK activity)” value in assay [4] (planktonic, […]) amounted to 1.0. Also, the “AK-based Prestwick Library Screening Results, P. aeruginosa (fold increase in extracellular AK activity)” value in assay [5] (planktonic, […]) is 1.1. In addition, the “AK-based Prestwick Library Screening Results, E. cloacae (fold increase in extracellular AK activity)” value in assay [6] (planktonic, […]) is 1.5. Further, the “AK-based Prestwick Library Screening Results, E. coli (fold increase in extracellular AK activity)” value in assay [7] (planktonic, […]) was determined as 1.0.
With `C[C@@H]1CC[C@@]2(NC1)O[C@H]1C[C@H]3[C@@H]4CC=C5C[C@@H](O)CC[C@]5(C)[C@H]4CC[C@]3(C)[C@H]1[C@@H]2C` [Solasodine], the fold induction at 50 µM in assay [1] (planktonic, […], read-out: AK-based Prestwick Library Screening Results, E. faecium (fold increase in extracellular AK activity)) was 0.9; in assay [2] (planktonic, […], read-out: AK-based Prestwick Library Screening Results, S. aureus (fold increase in extracellular AK activity)) it was 0.6; in assay [3] (planktonic, […], read-out: AK-based Prestwick Library Screening Results, K. pneumoniae (fold increase in extracellular AK activity)) it was 0.7; in assay [4] (planktonic, […], read-out: AK-based Prestwick Library Screening Results, A. baumannii (fold increase in extracellular AK activity)), 0.7; in assay [5] (planktonic, […], read-out: AK-based Prestwick Library Screening Results, P. aeruginosa (fold increase in extracellular AK activity)), 1; in assay [6] (planktonic, […], read-out: AK-based Prestwick Library Screening Results, E. cloacae (fold increase in extracellular AK activity)) it was 0.9. In assay [7] (planktonic, […], read-out: AK-based Prestwick Library Screening Results, E. coli (fold increase in extracellular AK activity)), the fold induction at 50 µM is 1.
As for `COc1ccc2cc3[n+](cc2c1OC)CCc1cc2c(cc1-3)OCO2` [Berberine chloride], the fold induction at 50 µM in assay [1] (setting [8]) was found to be 1; in assay [2] (setting [9]), 0.7; in assay [3] (setting [10]), 0.7; in assay [4] (setting [11]), 0.9; in assay [5] (setting [12]), 0.9; in assay [6] (setting [13]), 1.1. Further, the fold induction at 50 µM in assay [7] (setting [14]) came out at 1.
`CC(=O)Nc1nnc(S(N)(=O)=O)s1` [Acetazolamide]: the fold induction at 50 µM in assay [1] (setting [15]) was 0.9; in assay [2] (setting [16]), 0.4; in assay [3] (setting [17]), 0.4; in assay [4] (setting [18]), 0.4; in assay [5] (setting [19]) it was 0.3; in assay [6] (setting [20]), 0.3. The fold induction at 50 µM in assay [7] (setting [21]) amounted to 0.4.
In the case of `CN(C)CCn1nnnc1SCC1=C(C(=O)O)N2C(=O)[C@@H](NC(=O)Cc3csc(N)n3)[C@H]2SC1` [Cefotiam hydrochloride], the fold induction at 50 µM was 0.9 in assay [1] (setting [22]); 2.3 in assay [2] (setting [23]); 7.8 in assay [3] (setting [24]); 0.9 in assay [4] (setting [25]); 0.6 in assay [5] (setting [26]); 15.6 in assay [6] (setting [27]). In addition, the fold induction at 50 µM in assay [7] (setting [28]) is 23.9.
`Cc1cc(-c2ccccc2)nnc1NCCN1CCOCC1` [Minaprine dihydrochloride]: the fold induction at 50 µM in assay [1] (setting [22]) came to 0.8; in assay [2] (setting [23]), 1; in assay [3] (setting [24]), 0.9; in assay [4] (setting [25]) it was 1.3; in assay [5] (setting [26]) it was 1.1; in assay [6] (setting [27]), 1.3. Besides, the fold induction at 50 µM in assay [7] (setting [28]) came to 1.3.
With `CCC1=C(C)CN(C(=O)NCCc2ccc(S(=O)(=O)NC(=O)N[C@H]3CC[C@H](C)CC3)cc2)C1=O` [Glimepiride], the fold induction at 50 µM in assay [1] (planktonic, cutoff for positive-scoring molecules 3-fold increase, read-out: AK-based Prestwick Library Screening Results, E. faecium (fold increase in extracellular AK activity)) was 1.4; in assay [2] (planktonic, cutoff for positive-scoring molecules 3-fold increase, read-out: AK-based Prestwick Library Screening Results, S. aureus (fold increase in extracellular AK activity)), 0.5; in assay [3] (planktonic, cutoff for positive-scoring molecules 3-fold increase, read-out: AK-based Prestwick Library Screening Results, K. pneumoniae (fold increase in extracellular AK activity)) it was 0.7; in assay [4] (planktonic, cutoff for positive-scoring molecules 3-fold increase, read-out: AK-based Prestwick Library Screening Results, A. baumannii (fold increase in extracellular AK activity)), 0.7; in assay [5] (planktonic, cutoff for positive-scoring molecules 3-fold increase, read-out: AK-based Prestwick Library Screening Results, P. aeruginosa (fold increase in extracellular AK activity)), 0.7; in assay [6] (planktonic, cutoff for positive-scoring molecules 3-fold increase, read-out: AK-based Prestwick Library Screening Results, E. cloacae (fold increase in extracellular AK activity)) it was 0.9. For the same molecule, in assay [7] (planktonic, cutoff for positive-scoring molecules 3-fold increase, read-out: AK-based Prestwick Library Screening Results, E. coli (fold increase in extracellular AK activity)), the fold induction at 50 µM is 0.5.
`Cc1cc(C2CCCCC2)n(O)c(=O)c1.NCCO` [Ciclopirox ethanolamine]: the “AK-based Prestwick Library Screening Results, E. faecium (fold increase in extracellular AK activity)” value in assay [1] (setting [29]) came out at 1.6. Also, in assay [2] (setting [29]), the “AK-based Prestwick Library Screening Results, S. aureus (fold increase in extracellular AK activity)” value is on record as 0.7. The “AK-based Prestwick Library Screening Results, K. pneumoniae (fold increase in extracellular AK activity)” value in assay [3] (setting [29]) turned out to be 0.9. In addition, the “AK-based Prestwick Library Screening Results, A. baumannii (fold increase in extracellular AK activity)” value in assay [4] (setting [29]) was 1.2. Also, the “AK-based Prestwick Library Screening Results, P. aeruginosa (fold increase in extracellular AK activity)” value in assay [5] (setting [29]) is reported as 1.0. Further, the “AK-based Prestwick Library Screening Results, E. cloacae (fold increase in extracellular AK activity)” value in assay [6] (setting [29]) worked out at 1.2. Also, in assay [7] (setting [29]), the “AK-based Prestwick Library Screening Results, E. coli (fold increase in extracellular AK activity)” value is recorded as 1.1.
With `NS(=O)(=O)c1cc2c(cc1Cl)NCNS2(=O)=O` [Hydrochlorothiazide], the fold induction at 50 µM in assay [1] (setting [15]) is 1.1; in assay [2] (setting [16]), 0.5; in assay [3] (setting [17]), 0.6; in assay [4] (setting [18]), 0.5; in assay [5] (setting [19]), 0.5; in assay [6] (setting [20]) it was 0.4. For the same molecule, the fold induction at 50 µM in assay [7] (setting [21]) came out at 0.5.

The record behind these values is patent US10004701B2, “Methods and compositions for treating infection” (UNIVERSITY OF ROCHESTER, priority 2012, dated 2018).
